Test results reported in PMC8414802, “Hair Cell Generation in Cochlear Culture Models Mediated by Novel γ-Secretase Inhibitors” (Frontiers in Cell and Developmental Biology, 2021).

Test system: hair cells in rat OC explants exposed to S. pneumoniae
Experiment: OC explants after S. pneumoniae-induced damage
Assay type: cell-based
Procedure: To induce ototoxic damage, medium was removed from the OC cultures on the day after dissection and either 200 μM sisomicin (Sigma) in full otic medium, or 10^8 cfu/ml Streptococcus pneumoniae (described below) in ampicillin-free and FBS-free otic medium were added under the transwell membrane (lower compartment) of the cultivation system. After 2 h of exposure to the ototoxic insult, OCs were carefully washed 3 times and culture was continued for 4 days in fresh full otic medium.
A clinical isolate of S. pneumoniae, serotype 3 was used as previously described ([Leib et al., 2000]; [Perny et al., 2017]). […] Bacteria were diluted to the desired optical density (OD570 nm) and the final inoculum concentration was determined by plating serial dilutions on Columbia sheep blood agar. […]
Dividing cells were labeled with, 5-ethyl-2′-deoxyuridine (EdU) and detected with Click-it Plus kit (Life Technologies). […]
Image processing was performed with the open-source image processing software FIJI, version 2.0 ([Schindelin et al., 2012]). Hair cells were quantified by counting Pou4f3 or Myo7a positive cells of the organ of Corti at three random microscopic fields for each cochlear region (base, middle, and apex) covering in total at least 1,200 μm. The number of hair cells (IHCs and OHCs) is expressed as unit per 100 μm. […]

COc1ccc2c(c1)N1CCC(C)(C)C1=CC(=O)[C@H]2NC(=O)[C@H](C)NC(=O)CCC(F)(F)F [CPD3]
OHCs after S. pneumoniae damage compared to DMSO (4 days treatment after 2 h exposure): more OHCs in all turns of the organ of Corti | Pou4f3/Sox2 double-positive cells after S. pneumoniae damage (apical domain only, not statistically significant): increased occurrence
